Experimental data reported in patent US20240174674A1, “NITROGEN-CONTAINING POLYCYCLIC FUSED RING COMPOUND, PHARMACEUTICAL COMPOSITION THEREOF, PREPARATION METHOD THEREFOR, AND USE THEREOF” (APPLIED PHARMACEUTICAL SCIENCE, INC., priority 2021, published 2024).
pIC50: −log10 of the molar value.

Molecular target: RET G810R (Homo sapiens (Human), UniProt P07949, G810R)
Experiment: HTRF KinEASE-TK kinase activity test, RET G810R
Details: for pIC50: read-out: RET G810R IC50, HTRF kinase assay; for inhibitory activity against RET G810R relative to that of selpercatinib (LOXO-292): fold versus selpercatinib (LOXO-292)

Sequence of RET G810R (P07949 29-1114 G810R): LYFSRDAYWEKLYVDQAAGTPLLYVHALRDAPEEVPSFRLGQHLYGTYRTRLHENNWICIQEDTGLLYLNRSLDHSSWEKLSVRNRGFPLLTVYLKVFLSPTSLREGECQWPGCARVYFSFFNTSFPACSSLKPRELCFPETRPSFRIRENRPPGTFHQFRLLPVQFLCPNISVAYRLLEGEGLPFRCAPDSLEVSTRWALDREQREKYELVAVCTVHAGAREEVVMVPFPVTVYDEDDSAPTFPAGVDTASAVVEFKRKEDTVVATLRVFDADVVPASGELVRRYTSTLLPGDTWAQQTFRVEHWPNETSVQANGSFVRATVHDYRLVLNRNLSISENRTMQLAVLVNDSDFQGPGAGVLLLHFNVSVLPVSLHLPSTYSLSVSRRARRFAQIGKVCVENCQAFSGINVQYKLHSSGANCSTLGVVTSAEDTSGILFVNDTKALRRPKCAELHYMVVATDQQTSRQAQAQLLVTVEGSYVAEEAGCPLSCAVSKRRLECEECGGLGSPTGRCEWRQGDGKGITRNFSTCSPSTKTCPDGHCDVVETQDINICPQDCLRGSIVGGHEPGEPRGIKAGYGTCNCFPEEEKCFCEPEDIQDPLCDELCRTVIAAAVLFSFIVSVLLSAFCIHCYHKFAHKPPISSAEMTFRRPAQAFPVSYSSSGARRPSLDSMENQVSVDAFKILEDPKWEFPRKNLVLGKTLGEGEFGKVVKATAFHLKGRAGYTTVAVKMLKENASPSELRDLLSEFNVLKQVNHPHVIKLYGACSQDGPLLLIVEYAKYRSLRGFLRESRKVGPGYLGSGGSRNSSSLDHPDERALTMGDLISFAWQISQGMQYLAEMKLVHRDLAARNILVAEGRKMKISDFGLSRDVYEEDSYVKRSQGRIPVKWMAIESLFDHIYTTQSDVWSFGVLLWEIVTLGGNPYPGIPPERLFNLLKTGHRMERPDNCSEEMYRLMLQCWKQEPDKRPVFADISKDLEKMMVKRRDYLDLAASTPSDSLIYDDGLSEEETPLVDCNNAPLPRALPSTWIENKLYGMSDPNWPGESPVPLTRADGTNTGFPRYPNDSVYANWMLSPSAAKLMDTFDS

| SMILES | pIC50 | inhibitory activity against RET G810R relative to that of selpercatinib (LOXO-292) [times] |
| --- | --- | --- |
| CCOc1cc(-c2ccc(N3CCC(C)(NC(=O)c4cc(F)ccc4C)CC3)nc2)c2c3cn[nH]c3nn2c1 [Compound 1, N-(1-(5-(6-ethoxy-1H-pyrazolo[3′,4′:3,4]pyrazolo[1,5-α]pyridin-4-yl)pyridin-2-yl)-4-methylpiperidin-4-yl)-5-fluoro-2-methylbenzamide] | 8.19 |  |
| CCOc1cc(-c2ccc(N3CCC(Oc4ccc(OC)nn4)CC3)nc2)c2c3cn[nH]c3nn2c1 [Compound 8] | 8.06 |  |
| CCOc1cc(-c2ccc(N3CCC(CO)(NC(=O)c4ncccc4Cl)CC3)nc2)c2c3cn[nH]c3nn2c1 [Compound 12, 3-chloro-N-(1-(5-(6-ethoxy-1H-pyrazolo[3′,4′:3,4]pyrazolo[1,5-α]pyridin-4-yl)pyridin-2-yl)-4-(hydroxymethyl)piperidin-4-yl)picolinamide] | 8.68 | ≥ 10 |
| CCOc1cc(-c2ccc(N3CCC(CN(C)C)(NC(=O)c4ncccc4Cl)CC3)nc2)c2c3cn[nH]c3nn2c1 [Compound 15, 3-chloro-N-(4-((2-dimethylamino)methyl)-1-(5-(6-ethoxy-1H-pyrazolo[3′,4′:3,4]pyrazolo[1,5-α]pyridin-4-yl)pyridin-2-yl)piperidin-4-yl)picolinamide] | 8.82 | ≥ 10 |
| CCOc1cc(-c2ccc(N3CCC(CN4CCN(CC)CC4)(NC(=O)c4cc(F)ccc4F)CC3)nc2)c2c3cn[nH]c3nn2c1 [Compound 17, N-(1-(5-(6-ethoxy-1H-pyrazolo[3′,4′:3,4]pyrazolo[1,5-α]pyridin-4-yl)pyridin-2-yl)-4-((4-ethylpiperazin-1-yl)methyl)piperidin-4-yl)-2,5-difluorobenzamide] | 8.68 | ≥ 10 |
| CCOc1cc(-c2ccc(N3CCC(CN4CCOCC4)(NC(=O)CC(C)C)CC3)nc2)c2c3cn[nH]c3nn2c1 [Compound 29] | 8.06 |  |
| CCOc1cc(-c2ccc(N3CCC(C)(S(=O)(=O)CC(C)C)CC3)nc2)c2c3cn[nH]c3nn2c1 [Compound 33, 6-ethoxy-4-(6-(4-(isobutylsulfonyl)-4-methylpiperidin-1-yl)pyridin-3-yl)-1H-pyrazolo[3′,4′:3,4]p yrazolo[1,5-α]pyridine] | 8.60 | ≥ 10 |
| CCOc1cc(-c2ccc(N3CCC(S(=O)(=O)Cc4ccccc4)CC3)nc2)c2c3cn[nH]c3nn2c1 [Compound 34] | 8.31 |  |
| CCOc1cc(-c2ccc(N3CCC(CN(C)C)(C(=O)NCC(C)C)CC3)nc2)c2c3cn[nH]c3nn2c1 [Compound 35, 4-((dimethylamino)methyl)-1-(5-(6-ethoxy-1H-pyrazolo[3′,4′:3,4]pyrazolo[1,5-α]pyridin-4-yl)pyridin-2-yl)-N-isobutylpiperidine-4-carboxamide] | 8.29 |  |
| CCOc1cc(-c2ccc(N3CCC(CN4CCC4)(C(=O)NCC(C)C)CC3)nc2)c2c3cn[nH]c3nn2c1 [Compound 36, 4-(azetidin-1-ylmethyl)-1-(5-(6-ethoxy-1H-pyrazolo[3′,4′:3,4]pyrazolo[1,5-α]pyridin-4-yl)pyridin-2-yl)-N-isobutylpiperidine-4-carboxamide] | 8.24 |  |
| CCOc1cc(-c2ccc(N3CCC(CN4CCCC4)(C(=O)NCC(C)C)CC3)nc2)c2c3cn[nH]c3nn2c1 [Compound 37, 4-(pyrrolidin-1-ylmethyl)-1-(5-(6-ethoxy-1H-pyrazolo[3′,4′:3,4]pyrazolo[1,5-α]pyridin-4-yl)pyridin-2-yl)-N-isobutylpiperidine-4-carboxamide] | 8.20 |  |
| CCOc1cc(-c2ccc(N3CC[C@H](NC(=O)c4cc(F)ccc4Cl)[C@@H](O)C3)nc2)c2c3cn[nH]c3nn2c1 [Compound 43] | 8.72 | ≥ 10 |
| CCOc1cc(-c2ccc(N3CC[C@H](NC(=O)c4ncccc4C(F)(F)F)[C@@H](O)C3)nc2)c2c3cn[nH]c3nn2c1 [Compound 45] | 8.28 |  |
